Laboratory results taken from the OPERA property sets (Mansouri et al. 2018).

Conditions: for log10 BCF / log10 biotransformation half-life (days): fish

Compound	melting point [°C]	boiling point [°C]	other results
O=P(O)(O)c1ccccc1	164		
O=C(NNc1ccccc1)c1ccccc1	168	314	
C1CC1	-127	-32.8	log10 vapour pressure (mmHg): 3.73
O=[N+]([O-])c1ccc(Oc2ccc(C(F)(F)F)cc2[N+](=O)[O-])cc1	94		
CCCCCCCCCCCCCCCCCC(C)=O	57		
CCCCOCC1CO1 (centres undefined)		165	log10 vapour pressure (mmHg): 0.505; ready biodegradability: readily biodegradable
Brc1c(Br)c(Br)c(Br)c(Br)c1Br	326		ready biodegradability: not readily biodegradable; log10 BCF: 3; log10 biotransformation half-life (days): 0.43
C=CC(O)C=C		116	
NC(=O)OCC(O)c1ccccc1 (centres undefined)	112		
CCN(CC)CCNC(=O)c1cc(Cl)c(N)cc1OC	147		
CC1CCC(C)C(C)C1C (centres undefined)	-75		log10 vapour pressure (mmHg): 0.117
Cc1cccc(C(C)(C)C)c1O	31	230	ready biodegradability: not readily biodegradable
CC(C)C(=O)C(=O)C(C)C		144	
c1ccnnc1	-8	208	
COCCOCCOCCOC	-45	216	log10 vapour pressure (mmHg): -1.39
Clc1ccccc1-c1cc(Cl)c(Cl)c(Cl)c1Cl			log10 vapour pressure (mmHg): -4.16
CCCCCCCCCCCCCCOC(=O)CCCCCCCCCCCCC			ready biodegradability: readily biodegradable
O=C(O)CCCCC[N+](=O)[O-]			ready biodegradability: readily biodegradable
C=CCC(C(=O)O)C(=O)O	105		
CCCC=C(CCCC)CCCC		216	
CCCCCCCCCCCF			log10 vapour pressure (mmHg): -0.682
CCC(=O)CCC(C)C		164	

Compound	melting point [°C]	boiling point [°C]	other results
O=C(N/N=C/C=C/c1ccc([N+](=O)[O-])o1)c1ccc([N+](=O)[O-])s1	236		
Clc1nc2ccccc2o1		202	
COc1ccc2ncccc2c1	26.5	306	
Cc1cc(C)c(Cl)c(C)c1		205	
CCCC(C)CCC	-121	118	log10 biodegradation half-life (days): 0.602; log10 vapour pressure (mmHg): 1.31
CC1=CC(=O)[C@H]2C[C@@H]1C2(C)C		228	
Nc1ncnc2c1ncn2[C@]1(CO)O[C@H](CO)[C@@H](O)[C@H]1O	212		
O=C(C[N+](=O)[O-])Nc1ccccc1	94		
NC(=O)CC[C@H](N)C(=O)O			ready biodegradability: readily biodegradable
COc1ccccc1O	32	205	log10 Henry constant (atm·m³/mol): -5.92; log10 Koc (L/kg): 1.56; log10 vapour pressure (mmHg): -0.987; ready biodegradability: readily biodegradable
O=[N+]([O-])CBr		149	log10 vapour pressure (mmHg): 0.491
Brc1cc(Oc2c(Br)c(Br)c(Br)c(Br)c2Br)c(Br)c(Br)c1Br			log10 BCF: 5.44
CC(C)(C)CC(C)(C)c1ccc(O)c(Cc2ccc(Cl)cc2Cl)c1	78		
CC(=O)Oc1ccc(OC(C)=O)c(OC(C)=O)c1		300	
Nc1cc(Cl)ccc1Cl	50	251	ready biodegradability: not readily biodegradable; log10 BCF: 1.18; log10 biotransformation half-life (days): -1.13
CC(=O)Oc1cc(C)ccc1C(C)C		245	
CCN(CC)c1ccc(/N=N/c2ccccc2)cc1	97.5		log10 vapour pressure (mmHg): -7.07
NC(=S)NS(=O)(=O)c1ccc(N)cc1	182		
Cc1cccc2c1ccc1c3ccccc3ccc21	256		
C1=NNCC1		144	
CCC(C)(O)CCl (centres undefined)		151	
Cc1c(Br)cc(Br)c(O)c1Br	84		

Compound	melting point [°C]	boiling point [°C]	other results
N[C@@H](CCC(=O)N[C@@H](CS)C(=O)NCC(=O)O)C(=O)O	195		
CO[Si](CCCN=C(N(C)C)N(C)C)(OC)OC			ready biodegradability: not readily biodegradable
c1ccc([Si](c2ccccc2)(c2ccccc2)c2ccccc2)cc1	236		
NCC1CCCCC1		160	
CCC(=O)OC/C=C(\C)CCC=C(C)C		253	
COc1ccc(CC(C)(C)C)cc1		238	
O=C(O)CCI	81.5		
CCCCCCCCCCCCCCCCCC(=O)OCCCCCCCCCCCCCCCC	57		
CCCCCCCCOC(=O)CCCCCCCCC(=O)OCCCCCCCC			ready biodegradability: readily biodegradable
COc1cc([C@@H]2c3cc4c(cc3C(O[C@@H]3O[C@@H]5CO[C@@H](C)O[C@H]5[C@H](O)[C@H]3O)C3COC(=O)[C@@H]32)OCO4)cc(OC)c1O (some centres undefined)	244		
CCCCCCCCCCBr	-29.2	241	log10 vapour pressure (mmHg): -1.4
C=CCN1CC[C@]23c4c5ccc(O)c4O[C@H]2[C@@H](O)C=C[C@H]3[C@H]1C5	208		
CC(C)(C)C(O)C(Oc1ccc(-c2ccccc2)cc1)n1cncn1 (centres undefined)	127		
O=C1c2ccccc2C(=O)c2c(NCCO)cccc21	168		log10 vapour pressure (mmHg): -11
CN(C)Cc1cc(C(C)(C)C)c(O)c(C(C)(C)C)c1	93.5		
CCOc1ccc(C(C)(C)COCc2cccc(Oc3ccccc3)c2)cc1	37		
ClCc1ccc2ccccc2c1	48.5		
C=COCCC(C)C		112	
CCCCCCCCOC(=O)CCCCCCC	-18.1	307	
CCOC(=O)C(C)Oc1ccc(Oc2cnc3cc(Cl)ccc3n2)cc1 (centres undefined)	84.2		log10 Koc (L/kg): 2.71; log10 vapour pressure (mmHg): -8.19
